From patent US5420027A, “Methods and compositions for the expression of biologically active fusion proteins comprising a eukaryotic cytochrome P450 fused to a reductase in bacteria” (Board of Regents, The University of Texas System, priority 1992, dated 1995)
Read-outs that look alike come from different tables or passages of the source.

Experiments:
human liver P450 1A2 = biological target: T1, human liver P450 1A2 (Homo sapiens, UniProt P05177, A19F/I20L/S18V); experiment: Ethoxyresorufin and ethoxycoumarin O-deethylase activities of P450 1A2-containing E. coli membranes (fluorometric); format: biochemical; settings: O-deethylation; membranes plus purified reductase, 37° C.
T1 construct: made in house; host or cells: E. coli DH5α membranes, pCWori+ plasmid
T1 sequence (P05177 with tags, fused parts or gaps S18V/A19F/I20L limits assumed): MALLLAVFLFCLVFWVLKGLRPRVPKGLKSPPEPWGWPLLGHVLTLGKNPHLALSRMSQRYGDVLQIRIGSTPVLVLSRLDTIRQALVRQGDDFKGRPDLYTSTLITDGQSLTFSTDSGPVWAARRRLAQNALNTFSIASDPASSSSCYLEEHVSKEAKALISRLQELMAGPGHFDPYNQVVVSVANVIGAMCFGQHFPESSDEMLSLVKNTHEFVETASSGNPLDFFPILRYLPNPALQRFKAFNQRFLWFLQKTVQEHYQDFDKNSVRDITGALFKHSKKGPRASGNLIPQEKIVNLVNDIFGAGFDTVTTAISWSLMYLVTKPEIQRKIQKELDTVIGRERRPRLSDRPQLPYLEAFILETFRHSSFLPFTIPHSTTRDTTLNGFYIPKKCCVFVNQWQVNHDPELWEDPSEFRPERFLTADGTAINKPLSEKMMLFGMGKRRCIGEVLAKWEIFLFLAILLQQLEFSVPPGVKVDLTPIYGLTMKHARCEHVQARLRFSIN
Protocol: (§1) Membranes from P450 1A2-expressing E. coli were incubated with pure NADPH-cytochrome P450 reductase and the activity for the P450 directed oxidation of a number of substrates was determined.
(§2) Ethoxyresorufin and ethoxycoumarin O-deethylase activities were assayed fluorometrically using an Aminco-Bowman fluorometer as previously described (Burke & Mayer, 1974; Ullrich & Weber, 1972). […] Substrates were added as DMSO solutions in less than 0.1% of the final volume. The reactions were initiated by the addition of 10 μl of 50 mM NADPH.

bovine P45017α = biological target: T2, bovine P45017α (Bos taurus, UniProt P05185, W2A); experiment: Substrate-induced difference spectra (substrate binding) in intact E. coli expressing P45017α; settings: steroid added until spectrally saturated
T2 construct: made in house; host or cells: E. coli JM109 harboring pCWmod17 (intact cells)
T2 sequence (P05185 1-509 W2A): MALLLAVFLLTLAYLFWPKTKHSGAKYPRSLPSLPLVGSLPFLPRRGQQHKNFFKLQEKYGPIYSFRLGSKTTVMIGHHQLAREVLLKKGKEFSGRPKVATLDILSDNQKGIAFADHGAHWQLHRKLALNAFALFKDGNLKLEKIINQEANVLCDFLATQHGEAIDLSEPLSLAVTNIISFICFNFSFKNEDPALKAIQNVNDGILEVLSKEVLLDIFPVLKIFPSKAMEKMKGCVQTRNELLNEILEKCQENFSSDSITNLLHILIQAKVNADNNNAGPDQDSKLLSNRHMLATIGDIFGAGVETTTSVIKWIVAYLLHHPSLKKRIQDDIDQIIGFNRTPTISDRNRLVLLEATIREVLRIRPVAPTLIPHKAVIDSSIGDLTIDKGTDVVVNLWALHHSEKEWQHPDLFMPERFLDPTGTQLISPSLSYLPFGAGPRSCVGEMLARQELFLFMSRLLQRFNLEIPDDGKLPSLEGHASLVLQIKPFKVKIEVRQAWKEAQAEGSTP
Protocol: The functional role of the binding of C21 steroids to the expressed P45017α was determined by incubation of transformed E. coli with radiolabeled substrates and HPLC analysis of substrates and products.
For the studies shown in FIG. 3B, substrate binding spectra were obtained by adding steroid to the indicated final concentration: (preg) pregnenolone 22 μM, (17OH preg) 17α-hydroxypregnenolone 40 μM, (DHEA) dehydroepiandrosterone 46 μM, (AD) androstenedione 46 μM. A volume of washed cells containing 1.6 nmoles P45017α was diluted to 6 ml with MOPS buffer and divided into the sample and reference cuvettes of an Aminco DW-2A spectrophotometer. A baseline tracing was recorded from 350 to 510 nm (representative shown). Steroid was added in 10 μl aliquots (1-2mg/ml in ethanol) to the sample with an equal volume of ethanol added to the reference. Additional aliquots of steroids and ethanol were added until the bacterially expressed P45017α was spectrally saturated (spectra shown).

[1] = biological target: T3, bovine P450 17A1- rat liver reductase fusion protein (UniProt P00388+P05185, W2A); experiment: Steroid metabolism by bovine P450 17A1-rat liver reductase fusion protein with NADPH
T3 sequence (P05185+P00388 with tags, fused parts or gaps P05185:W2A): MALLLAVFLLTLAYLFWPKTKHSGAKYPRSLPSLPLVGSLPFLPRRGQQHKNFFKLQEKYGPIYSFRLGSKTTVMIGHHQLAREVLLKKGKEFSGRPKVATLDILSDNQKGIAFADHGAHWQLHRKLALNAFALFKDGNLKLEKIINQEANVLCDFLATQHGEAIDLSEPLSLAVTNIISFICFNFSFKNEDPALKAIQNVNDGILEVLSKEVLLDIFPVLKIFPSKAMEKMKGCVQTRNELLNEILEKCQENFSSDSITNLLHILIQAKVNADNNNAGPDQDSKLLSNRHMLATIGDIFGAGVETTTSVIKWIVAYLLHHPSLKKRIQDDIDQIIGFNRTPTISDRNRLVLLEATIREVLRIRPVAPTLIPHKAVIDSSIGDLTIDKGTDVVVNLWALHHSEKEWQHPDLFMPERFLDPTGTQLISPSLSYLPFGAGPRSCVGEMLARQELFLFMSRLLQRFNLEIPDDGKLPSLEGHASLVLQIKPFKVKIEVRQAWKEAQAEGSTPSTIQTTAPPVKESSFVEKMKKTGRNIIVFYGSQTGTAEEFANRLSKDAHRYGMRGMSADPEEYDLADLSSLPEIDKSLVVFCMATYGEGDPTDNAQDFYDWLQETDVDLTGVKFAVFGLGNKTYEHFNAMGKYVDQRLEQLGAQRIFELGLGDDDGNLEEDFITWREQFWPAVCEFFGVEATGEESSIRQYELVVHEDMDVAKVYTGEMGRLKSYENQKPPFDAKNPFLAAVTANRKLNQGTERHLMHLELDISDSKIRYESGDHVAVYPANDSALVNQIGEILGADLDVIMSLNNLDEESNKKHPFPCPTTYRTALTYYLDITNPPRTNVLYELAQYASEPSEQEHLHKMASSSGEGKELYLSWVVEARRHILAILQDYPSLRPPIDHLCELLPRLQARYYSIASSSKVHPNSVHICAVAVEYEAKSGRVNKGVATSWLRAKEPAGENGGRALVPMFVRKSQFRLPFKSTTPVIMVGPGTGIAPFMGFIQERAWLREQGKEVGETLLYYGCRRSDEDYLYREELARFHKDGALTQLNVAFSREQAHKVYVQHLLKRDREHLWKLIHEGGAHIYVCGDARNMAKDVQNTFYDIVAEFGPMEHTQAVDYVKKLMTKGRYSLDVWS
Protocol: FIG. 11. […] Analysis was performed with reverse phase HPLC chromatography on a C18 column.
In the present example, purification of the fusion protein was achieved by chromatography on DE-52 and 2', 5' ADP-sepharose.

[2] = biological target: T4, bovine 17α-hydroxylase (P45017α) (Bos taurus, UniProt P05185, W2A); settings: for conversion by expressed P45017α (17α-hydroxylation / 17,20-lyase): intact E. coli, 2.5 μM steroid, 28° C., up to 8 hours, no added reductase
T4 sequence (P05185 1-509 W2A): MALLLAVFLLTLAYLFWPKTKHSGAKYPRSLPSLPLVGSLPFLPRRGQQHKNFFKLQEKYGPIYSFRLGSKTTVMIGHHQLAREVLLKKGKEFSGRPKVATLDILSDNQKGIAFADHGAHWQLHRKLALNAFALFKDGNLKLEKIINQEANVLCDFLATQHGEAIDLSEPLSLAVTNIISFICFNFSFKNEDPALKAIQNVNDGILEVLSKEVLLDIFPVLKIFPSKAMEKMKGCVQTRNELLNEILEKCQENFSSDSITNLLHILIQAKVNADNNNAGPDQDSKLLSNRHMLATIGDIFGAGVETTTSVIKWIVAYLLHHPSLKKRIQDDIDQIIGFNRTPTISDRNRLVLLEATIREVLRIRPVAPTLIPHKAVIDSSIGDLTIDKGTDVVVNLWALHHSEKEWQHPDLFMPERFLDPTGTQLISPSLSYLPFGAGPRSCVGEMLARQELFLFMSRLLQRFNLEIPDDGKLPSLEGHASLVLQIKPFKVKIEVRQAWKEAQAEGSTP
Protocol: The initial substrates employed were pregnenolone, 17α-hydroxypregnenolone, and progesterone. For these studies, E. coli were grown and induced as described for the FIG. 2 studies. Cells were pelleted, washed once in MOPS buffer and resuspended in the same buffer at 1/20 volume of the original bacterial culture. A volume of concentrated cells corresponding to 3.7-4.2 nmoles P45017α was diluted to 5ml MOPS buffer containing 10 mM glucose, 2.5 μM steroid and 100,000 cpm/ml of ^3 H-labeled radioactive steroid. Samples were incubated at. 28° C. with gentle shaking. Aliquots (0.5 ml) were removed at 0, 0.5, 1, 2, 4, 6 and 8 hours after steroid addition. Following extraction of cells and culture media steroids were analyzed by HPLC as previously described (Estabrook et al., 1988).

[3] = substrate: CCOc1ccc2nc3ccc(=O)cc-3oc2c1; experiment: Ethoxyresorufin and ethoxycoumarin O-deethylase activities of P450 1A2-containing E. coli membranes (fluorometric); format: biochemical, human; settings: other: O-deethylation, membranes plus purified reductase, 37° C., pH 7.4
Protocol: as §1, §2

[4] = substrate: C[C@]12CC[C@@H]3c4ccc(O)cc4CC[C@H]3[C@@H]1CC[C@@H]2O; experiment: cells, lysate or membranes named; settings: other: estradiol to 2-OH metabolite, membranes plus purified reductase, 37° C., pH 7.5
[5] = membrane-bound fused enzyme (FIG. 10)
[6] = purified fusion protein incubated with NADPH (FIGS. 11, 12)

CCOc1ccc2ccc(=O)oc2c1 [Ethoxycoumarin]
Vmax (human liver P450 1A2): 0.3644 mol/min/mol P450

C[C@]12CC[C@H](O)CC1=CC[C@@H]1[C@@H]2CC[C@]2(C)C(=O)CC[C@@H]12 [dehydroepiandrosterone]
binding to expressed P45017α (substrate-induced difference spectrum) (bovine P45017α): much less binding

CC(=O)[C@H]1CC[C@H]2[C@@H]3CCC4=CC(=O)CC[C@]4(C)[C@H]3CC[C@]12C [progesterone]
metabolism by membrane-bound fusion protein [1, 5]: rather slow rate | metabolism by purified fusion protein [1, 6]: remarkably high enzymatic activity | conversion by expressed P45017α (17α-hydroxylation / 17,20-lyase) [2]: readily converted to their 17α-hydroxylated products | binding to expressed P45017α (substrate-induced difference spectrum) (bovine P45017α): binding of substrates was also observed

CC(=O)[C@@]1(O)CC[C@H]2[C@@H]3CC=C4C[C@@H](O)CC[C@]4(C)[C@H]3CC[C@@]21C [17α-hydroxyregnenolone, 17α-hydroxypregnenolone]
metabolism by membrane-bound fusion protein [1, 5]: lost the ability to catalyze the lyase reaction | metabolism by purified fusion protein [1, 6]: DHEA is formed in a time dependent manner | binding to expressed P45017α (substrate-induced difference spectrum) (bovine P45017α): binding of substrates was also observed

C[C@]12CCC(=O)C=C1CC[C@@H]1[C@@H]2CC[C@]2(C)C(=O)CC[C@@H]12 [androstenedione]
binding to expressed P45017α (substrate-induced difference spectrum) (bovine P45017α): no binding

CC(=O)N1CCN(c2ccc(OCC3COC(Cn4ccnc4)(c4ccc(Cl)cc4Cl)O3)cc2)CC1 (stereo not shown) [ketoconazole]
inhibition of 17α-hydroxylase activity ([2]; intact E. coli expressing bovine P45017α): inhibit 17α-hydroxylase activity

CC(=O)[C@H]1CC[C@H]2[C@@H]3CC=C4C[C@@H](O)CC[C@]4(C)[C@H]3CC[C@]12C [pregnenolone]
metabolism by membrane-bound fusion protein [1]: rather slow rate | metabolism by purified fusion protein [1]: remarkably high enzymatic activity | conversion by expressed P45017α (17α-hydroxylation / 17,20-lyase) [2]: readily converted to their 17α-hydroxylated products | binding to expressed P45017α (substrate-induced difference spectrum) (bovine P45017α): binding of substrates was also observed

B1: human liver P450 1A2 (Homo sapiens; A19F/I20L/S18V) (protein)
chain: MALLLAVFLFCLVFWVLKGLRPRVPKGLKSPPEPWGWPLLGHVLTLGKNPHLALSRMSQRYGDVLQIRIGSTPVLVLSRLDTIRQALVRQGDDFKGRPDLYTSTLITDGQSLTFSTDSGPVWAARRRLAQNALNTFSIASDPASSSSCYLEEHVSKEAKALISRLQELMAGPGHFDPYNQVVVSVANVIGAMCFGQHFPESSDEMLSLVKNTHEFVETASSGNPLDFFPILRYLPNPALQRFKAFNQRFLWFLQKTVQEHYQDFDKNSVRDITGALFKHSKKGPRASGNLIPQEKIVNLVNDIFGAGFDTVTTAISWSLMYLVTKPEIQRKIQKELDTVIGRERRPRLSDRPQLPYLEAFILETFRHSSFLPFTIPHSTTRDTTLNGFYIPKKCCVFVNQWQVNHDPELWEDPSEFRPERFLTADGTAINKPLSEKMMLFGMGKRRCIGEVLAKWEIFLFLAILLQQLEFSVPPGVKVDLTPIYGLTMKHARCEHVQARLRFSIN
notes: made in house; host or cells: E. coli DH5α membranes, pCWori+ plasmid
Km [3]: 0.01 µM | kcat [3]: 2.5 mol/min/mol P450 | Km [4]: 13 µM | kcat [4]: 1.5 mol/min/mol P450
